“Also recorded” adds a separate entry of the source. Read-outs that look alike come from different tables or passages of the source.
Columns and labels:
[1] = tested on: Tissue Factor; test: TNF-alpha induced Tissue Factor expression in HUVEC, flow cytometry; assay type: cell-based, human; details: TNF-alpha stimulation 48 hours
Description: In the experiments below, human umbilical vein endothelial cells (HUVEC) where purchased from AllCells and grown in Opti-MEM media with complete fetal calf serum. Cells were stimulated with the indicated concentrations of TNF-alpha for 48 hours and incubated with the indicated concentrations of individual components of QuadraMune™ as well as the combination. Quantification of Tissue Factor was performedby flow cytometry and expressed as mean fluorescent intensity (MFI).

[2] = tested on: Nrf2 (+/+) primary peritoneal macrophages; details: cited from earlier work
[3] = tested on: LPS-challenged macrophages; details: pre-incubated 6 h (0 to 50 μM), LPS 24 h; cited from earlier work
[4] = tested on: BALB/c mice with LPS-induced ARDS; details: cited from earlier work
[5] = tested on: lipopolysaccharide-induced inflammatory reactions; details: cited from earlier work
[6] = tested on: mice challenged with endotoxin (LPS O111:B4) or live Escherichia coli; details: cited from earlier work; for concentration of IL-1α: controls 1187.0±278.64
[7] = tested on: lipopolysaccharide-activated macrophages; details: cited from earlier work
[8] = tested on: nuclear factor-κB (NF-κB); details: macrophage foam cells; cited from earlier work
[9] = tested on: rats subjected to myocardial ischemia and reperfusion; details: 10 mg/kg intravenously then 10 mg/kg/h infusion; cited from earlier work
[10] = tested on: mice with experimental colitis; details: 50 and 100 mg/kg/day; cited from earlier work
[11] = tested on: male Sprague-Dawley rats; details: 10 mg/kg intraperitoneally at 1 and 6 h after CL2P and every 12 h; cited from earlier work
[12] = tested on: C57BL6 mice; details: 10 mg/kg intraperitoneally, 72 h after CL2P; cited from earlier work
[13] = tested on: mice; details: cited from earlier work
[14] = tested on: mice with LPS-induced ARDS; details: 10 mg/kg ip; cited from earlier work
[15] = tested on: NK cell; test: Nanostilbene in cancer patients: NK cell activity and interferon gamma production; assay type: in vivo, human; details: pterostilbene administered in the form of nanostilbene in cancer patients
[16] = animal studies; cited from earlier work
[17] = tested on: interleukin-1, interleukin-6, interleukin-8, TNF-alpha; details: cited from earlier work
[18] = tested on: human umbilical vein VECs (HUVECs); details: oxLDL 200 μg/ml; cited from earlier work
[19] = tested on: apoE(−/−) mice; details: injection; cited from earlier work
[20] = tested on: lectin-like oxLDL receptor-1 (LOX-1); details: in vitro and in vivo; cited from earlier work
[21] = 50 mg/kg, LPS 5 mg/kg 3 days later

For `C[S+]([O-])CCCCN=C=S` (stereo not drawn) [sulforaphane, 1-isothiocyanato-4-(methylsulfinyl)-butane], the “TNF-alpha induced Tissue Factor expression (mean fluorescent intensity)” value [1] is given as “reduction of TNF-alpha induced Tissue Factor expression”, the “TNF-alpha induced Tissue Factor expression (mean fluorescent intensity)” value ([1]; listed as Sulforaphane) is given as “reduces inflammation induced tissue factor expression” and the HO-1 expression ([2]; LPS-stimulated Nrf2 (+/+) macrophages) is given as “significantly augmented”. The “LPS-stimulated mRNA expression, protein expression and production of TNF-alpha, IL-1beta, COX-2 and iNOS” value ([2]; pretreatment, Nrf2 (+/+) macrophages) was “potently inhibited”, the “expression of NO and cytokines” value [3] was “able to prevent the expression of NO and cytokines” and the “serum levels of IL-6 and TNF-α, nuclear factor-κB protein expression” value ([4]; 50 mg/kg, ELISA) was “significantly decreased”. For the same compound, the “lactate dehydrogenase (LDH) activity” value [4, 21] was “significantly decreased”, the “wet-to-dry ratio of the lungs” value [4, 21] was “significantly decreased” and the “PGE2 production, COX-2 and MMP-9 protein expression, iNOS activity” value ([4]; 50 mg/kg) was “significantly inhibited”. For the same compound, the “Nrf2/antioxidant response element (ARE) pathway” value ([4]; pre-treatment) was “activated”.

In the case of `CC1=CC(=O)C(C(C)C)=CC1=O` [thymoquinone], the “TNF-alpha induced Tissue Factor expression (mean fluorescent intensity)” value [1] is given as “reduction of TNF-alpha induced Tissue Factor expression”, the “TNF-alpha induced Tissue Factor expression (mean fluorescent intensity)” value ([1]; listed as Thymoquinone) is given as “reduces inflammation induced tissue factor expression” and the lipopolysaccharide-induced inflammatory reactions [5] is given as “suppressed effectively the lipopolysaccharide-induced inflammatory reactions”. The “concentration of nitric oxide” value ([5]; marker of inflammation) was “reduced significantly the concentration of nitric oxide”, the “concentration of IL-1α” value ([6]; 0.75 mg/kg dose) was 310.8 ± 70.93 pg/mL and the IL-10 levels ([6]; 0.75 mg/kg, controls 5505.2±333.96) was 2885.0 ± 553.98 pg/mL. The “concentration of IL-1α” value ([6]; 1 mg/kg group) was 428.3 ± 71.32 pg/mL, the “levels of TNF-α and IL-2” value ([6]; P values=0.1817 and 0.0851) was “relatively lower levels of TNF-α and IL-2” and the reduction of mortality ([6]; mice, sepsis) was 80-90%. The “renal and hepatic biomarker profiles” value ([6]; mice, sepsis) was “improved both renal and hepatic biomarker profiles”.

For epigallocatechin-3-gallate [EGCG], the “TNF-alpha induced Tissue Factor expression (mean fluorescent intensity)” value [1] is given as “reduces inflammation induced tissue factor expression; also recorded: reduction of TNF-alpha induced Tissue Factor expression”, the “activation of nuclear factor-kappaB” value ([7]; electrophoretic mobility shift assay) is given as “blocked the activation of nuclear factor-kappaB” and the “nitric oxide (NO) generation” value ([7]; marker of activated macrophages) is given as “inhibit nitric oxide (NO) generation”. For the same compound, the “TNF-α-induced NF-κB activity” value [8] was “inhibition of the TNF-α-induced nuclear factor-κB (NF-κB) activity”, the “myocardial damage and myeloperoxidase activity” value [9] was “reduced myocardial damage and myeloperoxidase activity” and the “plasma IL-6 and creatine phosphokinase levels” value [9] was “decreased”. For the same compound, the “plasma levels of IL-10 and TGF-β1” value [10] was “increasing the plasma levels of IL-10 and TGF-β1”, the “release of IL-6 and IL-17” value [10] was “reduce the release of IL-6 and IL-17” and the “hypotension (mean arterial blood pressure)” value [11] was “significantly improved”. The survival [12] was “significantly improved”, the “rescue from lethal sepsis” value ([13]; first dose 24 hours after cecal ligation and puncture) was “rescued mice from lethal sepsis” and the “protection against lethal endotoxemia” value ([13]; intraperitoneal administration) was “protected mice against lethal endotoxemia”. The “expression of TNF-α, IL-1β and IL-6 in lung, serum and bronchoalveolar lavage fluid” value [14] was “significantly decreased”.

In the case of “trans-3,5-dimethoxy-4-hydroxystilbene [pterostilbene]”, the “TNF-alpha induced Tissue Factor expression (mean fluorescent intensity)” value [1] is reported as “reduction of TNF-alpha induced Tissue Factor expression”, the “TNF-alpha induced Tissue Factor expression (mean fluorescent intensity)” value ([1]; listed as Pterostilbene) is reported as “reduces inflammation induced tissue factor expression” and the NK cell activity [15] is reported as “increased NK cell activity”. The interferon gamma production [15] was “increased”, the bioavailability [16] was 80% and the “inhibition of inflammatory cytokines (interleukin-1, interleukin-6, interleukin-8, TNF-alpha)” value [17] was “inhibit inflammatory cytokines associated with ARDS”. For the same compound, the “protection against oxLDL-induced cell shrinkage, chromatin condensation, nuclear fragmentation, apoptosis” value [18] was “protected against such injuries”, the “number of TUNEL-positive cells in the endothelium of atherosclerotic plaque” value [19] was “strongly decreased the number of TUNEL-positive cells” and the LOX-1 expression [20] was “inhibited the expression of lectin-like oxLDL receptor-1 (LOX-1)”.
